Test results taken from patent US8877748B2, “Heterocyclic fused anthraquinone derivatives, manufacturing method and pharmaceutical composition using thereof” (National Defense Medical Center, priority 2012, dated 2014).

Tests used:
HL-60, TB = test: NCI one-dose screening, leukemia HL-60, TB; assay type: cell-based, human; conditions: 10 μM
MOLT-4 = test: NCI one-dose screening, leukemia MOLT-4; assay type: cell-based, human; conditions: 10 μM
SR = test: NCI one-dose screening, leukemia SR; assay type: cell-based, human; conditions: 10 μM
PRMI-8226 cell line = test: NCI one-dose screening, leukemia PRMI-8226; assay type: cell-based, human; conditions: 10 μM
K562cell line = test: NCI one-dose screening, leukemia K562; assay type: cell-based, human; conditions: 10 μM
EKVX = test: NCI one-dose screening, non-small cell lung cancer EKVX; assay type: cell-based, human; conditions: 10 μM
HOP-62 = test: NCI one-dose screening, non-small cell lung cancer HOP-62; assay type: cell-based, human; conditions: 10 μM
HOP-92 = test: NCI one-dose screening, non-small cell lung cancer HOP-92; assay type: cell-based, human; conditions: 10 μM
NCI-H226 = test: NCI one-dose screening, non-small cell lung cancer NCI-H226; assay type: cell-based, human; conditions: 10 μM
NCI-H23 = test: NCI one-dose screening, non-small cell lung cancer NCI-H23; assay type: cell-based, human; conditions: 10 μM
NCI-H460 = test: NCI one-dose screening, non-small cell lung cancer NCI-H460; assay type: cell-based, human; conditions: 10 μM
NCI-H522 = test: NCI one-dose screening, non-small cell lung cancer NCI-H522; assay type: cell-based, human; conditions: 10 μM
A549/ATCC = test: NCI one-dose screening, non-small cell lung cancer A549/ATCC; assay type: cell-based, human; conditions: 10 μM
COLO 205 = test: NCI one-dose screening, colon cancer COLO 205; assay type: cell-based, human; conditions: 10 μM
HCC-2998 = test: NCI one-dose screening, colon cancer HCC-2998; assay type: cell-based, human; conditions: 10 μM
HCT-116 = test: NCI one-dose screening, colon cancer HCT-116; assay type: cell-based, human; conditions: 10 μM
HCT-15 = test: NCI one-dose screening, colon cancer HCT-15; assay type: cell-based, human; conditions: 10 μM
KM12 = test: NCI one-dose screening, colon cancer KM12; assay type: cell-based, human; conditions: 10 μM
HT29 = test: NCI one-dose screening, colon cancer HT29; assay type: cell-based, human; conditions: 10 μM
SF-268 = test: NCI one-dose screening, CNS cancer SF-268; assay type: cell-based, human; conditions: 10 μM
SF-295 = test: NCI one-dose screening, CNS cancer SF-295; assay type: cell-based, human; conditions: 10 μM
SF-539 = test: NCI one-dose screening, CNS cancer SF-539; assay type: cell-based, human; conditions: 10 μM
SNB-19 = test: NCI one-dose screening, CNS cancer SNB-19; assay type: cell-based, human; conditions: 10 μM
SNB-75 = test: NCI one-dose screening, CNS cancer SNB-75; assay type: cell-based, human; conditions: 10 μM
U251 = test: NCI one-dose screening, CNS cancer U251; assay type: cell-based, human; conditions: 10 μM
LOX IMVI = test: NCI one-dose screening, melanoma LOX IMVI; assay type: cell-based, human; conditions: 10 μM
MALME-3M = test: NCI one-dose screening, melanoma MALME-3M; assay type: cell-based, human; conditions: 10 μM
M14 = test: NCI one-dose screening, melanoma M14; assay type: cell-based, human; conditions: 10 μM
UACC-62 = test: NCI one-dose screening, melanoma UACC-62; assay type: cell-based, human; conditions: 10 μM
UACC-257 = test: NCI one-dose screening, melanoma UACC-257; assay type: cell-based, human; conditions: 10 μM
SK-MEL-2 = test: NCI one-dose screening, melanoma SK-MEL-2; assay type: cell-based, human; conditions: 10 μM
SK-MEL-28 = test: NCI one-dose screening, melanoma SK-MEL-28; assay type: cell-based, human; conditions: 10 μM
SK-MEL-5 = test: NCI one-dose screening, melanoma SK-MEL-5; assay type: cell-based, human; conditions: 10 μM
IGROV1 = test: NCI one-dose screening, ovarian cancer IGROV1; assay type: cell-based, human; conditions: 10 μM
OVCAR-3 = test: NCI one-dose screening, ovarian cancer OVCAR-3; assay type: cell-based, human; conditions: 10 μM
OVCAR-5 = test: NCI one-dose screening, ovarian cancer OVCAR-5; assay type: cell-based, human; conditions: 10 μM
OVCAR-8 = test: NCI one-dose screening, ovarian cancer OVCAR-8; assay type: cell-based, human; conditions: 10 μM
SK-OV-3 = test: NCI one-dose screening, ovarian cancer SK-OV-3; assay type: cell-based, human; conditions: 10 μM
786-O = test: NCI one-dose screening, renal cancer 786-O; assay type: cell-based, human; conditions: 10 μM
CAKI-1 = test: NCI one-dose screening, renal cancer CAKI-1; assay type: cell-based, human; conditions: 10 μM
[1] = NCI one-dose screening, renal cancer A489; assay type: cell-based, human; conditions: 10 μM
ACHN = test: NCI one-dose screening, renal cancer ACHN; assay type: cell-based, human; conditions: 10 μM
SN12C = test: NCI one-dose screening, renal cancer SN12C; assay type: cell-based, human; conditions: 10 μM
TK-10 = test: NCI one-dose screening, renal cancer TK-10; assay type: cell-based, human; conditions: 10 μM
UO-31 = test: NCI one-dose screening, renal cancer UO-31; assay type: cell-based, human; conditions: 10 μM
RXF, 393 = test: NCI one-dose screening, renal cancer RXF, 393; assay type: cell-based, human; conditions: 10 μM
DU145 = test: NCI one-dose screening, prostate cancer DU145; assay type: cell-based, human; conditions: 10 μM
PC-3 = test: NCI one-dose screening, prostate cancer PC-3; assay type: cell-based, human; conditions: 10 μM
MCF7 = test: NCI one-dose screening, breast cancer MCF7; assay type: cell-based, human; conditions: 10 μM
MDA-MB-231/ATCC = test: NCI one-dose screening, breast cancer MDA-MB-231/ATCC; assay type: cell-based, human; conditions: 10 μM
MDA-MB-468 = test: NCI one-dose screening, breast cancer MDA-MB-468; assay type: cell-based, human; conditions: 10 μM
NCl/ADR-RES = test: NCI one-dose screening, breast cancer NCl/ADR-RES; assay type: cell-based, human; conditions: 10 μM; listed under Ovarian cancer
BT-549 = test: NCI one-dose screening, breast cancer BT-549; assay type: cell-based, human; conditions: 10 μM
T-47D = test: NCI one-dose screening, breast cancer T-47D; assay type: cell-based, human; conditions: 10 μM
MDA, -MB-435 = test: NCI one-dose screening, breast cancer MDA, -MB-435; assay type: cell-based, human; conditions: 10 μM; listed under Melanoma
human tumor cell lines = test: NCI one-dose screening, Mean / Delta / Range of growth percent over all tested cell lines; assay type: cell-based; conditions: 10 μM

Question: With O=C1c2ccccc2C(=O)c2c1cc(Sc1ccccn1)c1nsnc21 [C58, 4-(pyridin-2-yl-thio)anthra[2,1-c][1,2,5] thia-diazole-6,11-dione] as the compound, how does the “Growth Percent HL-60(TB)” value (HL-60, TB) read?
Answer: −40.05%

Question: And the “Growth Percent MOLT-4” value (MOLT-4)?
Answer: −41.19%

Question: And the “Growth Percent SR” value (SR)?
Answer: 0.05%

Question: And the “Growth Percent RPMI-8226” value (PRMI-8226 cell line)?
Answer: −4.48%

Question: What about the “Growth Percent K562” value (K562cell line) of the same compound?
Answer: −23.03%

Question: What about the “Growth Percent EKVX” value (EKVX) of the same compound?
Answer: 97.65%

Question: What about the “Growth Percent HOP-62” value (HOP-62) of the same compound?
Answer: 81.44%

Question: What about the “Growth Percent HOP-92” value (HOP-92) of the same compound?
Answer: −44.56%

Question: What about the “Growth Percent NCI-H226” value (NCI-H226) of the same compound?
Answer: 82.43%

Question: And the “Growth Percent NCI-H23” value (NCI-H23)?
Answer: 4.86%

Question: And the “Growth Percent NCI-H460” value (NCI-H460)?
Answer: 89.65%

Question: What about the “Growth Percent NCI-H522” value (NCI-H522) of the same compound?
Answer: 48.83%

Question: And the “Growth Percent A549/ATCC” value (A549/ATCC)?
Answer: 96.53%

Question: What about the “Growth Percent COLO 205” value (COLO 205) of the same compound?
Answer: 111.91%

Question: And the “Growth Percent HCC-2998” value (HCC-2998)?
Answer: 106.02%

Question: What about the “Growth Percent HCT-116” value (HCT-116) of the same compound?
Answer: −84.89%

Question: What about the “Growth Percent HCT-15” value (HCT-15) of the same compound?
Answer: 82.58%

Question: And the “Growth Percent KM12” value (KM12)?
Answer: 87.50%

Question: What about the “Growth Percent HT29” value (HT29) of the same compound?
Answer: 108.08%

Question: What about the “Growth Percent SF-268” value (SF-268) of the same compound?
Answer: 37.83%

Question: And the “Growth Percent SF-295” value (SF-295)?
Answer: 78.47%

Question: What about the “Growth Percent SF-539” value (SF-539) of the same compound?
Answer: 93.92%

Question: And the “Growth Percent SNB-19” value (SNB-19)?
Answer: 103.09%

Question: And the “Growth Percent SNB-75” value (SNB-75)?
Answer: 70.82%

Question: What about the “Growth Percent U251” value (U251) of the same compound?
Answer: 43.78%

Question: What about the “Growth Percent LOX IMVI” value (LOX IMVI) of the same compound?
Answer: −54.85%

Question: And the “Growth Percent MALME-3M” value (MALME-3M)?
Answer: 18.08%

Question: And the “Growth Percent M14” value (M14)?
Answer: 73.52%

Question: What about the “Growth Percent UACC-62” value (UACC-62) of the same compound?
Answer: 69.46%

Question: What about the “Growth Percent UACC-257” value (UACC-257) of the same compound?
Answer: −10.49%

Question: What about the “Growth Percent SK-MEL-2” value (SK-MEL-2) of the same compound?
Answer: 14.45%

Question: What about the “Growth Percent SK-MEL-28” value (SK-MEL-28) of the same compound?
Answer: 108.55%

Question: What about the “Growth Percent SK-MEL-5” value (SK-MEL-5) of the same compound?
Answer: 61.76%

Question: And the “Growth Percent IGROV1” value (IGROV1)?
Answer: −30.93%

Question: And the “Growth Percent OVCAR-3” value (OVCAR-3)?
Answer: −90.05%

Question: And the “Growth Percent OVCAR-5” value (OVCAR-5)?
Answer: 118.16%

Question: And the “Growth Percent OVCAR-8” value (OVCAR-8)?
Answer: 18.67%

Question: And the “Growth Percent SK-OV-3” value (SK-OV-3)?
Answer: 115.11%

Question: And the “Growth Percent 786-0” value (786-O)?
Answer: −96.82%

Question: And the “Growth Percent CAKI-1” value (CAKI-1)?
Answer: 59.22%

Question: And the “Growth Percent A498” value [1]?
Answer: 68.74%

Question: And the “Growth Percent ACHN” value (ACHN)?
Answer: −71.76%

Question: What about the “Growth Percent SN12C” value (SN12C) of the same compound?
Answer: 77.39%

Question: What about the “Growth Percent TK-10” value (TK-10) of the same compound?
Answer: 80.94%

Question: And the “Growth Percent UO-31” value (UO-31)?
Answer: −79.21%

Question: What about the “Growth Percent RXF 393” value (RXF, 393) of the same compound?
Answer: 60.19%

Question: And the “Growth Percent DU145” value (DU145)?
Answer: 58.15%

Question: What about the “Growth Percent PC-3” value (PC-3) of the same compound?
Answer: 14.77%

Question: What about the “Growth Percent MCF7” value (MCF7) of the same compound?
Answer: 68.59%

Question: What about the “Growth Percent MDA-MB-231/ATCC” value (MDA-MB-231/ATCC) of the same compound?
Answer: 4.55%

Question: What about the “Growth Percent MDA-MB-468” value (MDA-MB-468) of the same compound?
Answer: −80.08%

Question: What about the “Growth Percent NCI/ADR-RES” value (NCl/ADR-RES) of the same compound?
Answer: 37.25%

Question: What about the “Growth Percent BT-549” value (BT-549) of the same compound?
Answer: 76.58%

Question: And the “Growth Percent T-47D” value (T-47D)?
Answer: −52.85%

Question: And the “Growth Percent MDA-MB-435” value (MDA, -MB-435)?
Answer: −80.50%

Question: And the “Growth Percent Delta” value (human tumor cell lines; delta over all cell lines)?
Answer: 125.38%

Question: And the “Growth Percent Mean” value (human tumor cell lines; mean over all cell lines)?
Answer: 28.56%

Question: And the “Growth Percent Range” value (human tumor cell lines; range over all cell lines)?
Answer: 214.98%
